Reference: PMC11831560, “Development of the Pyrido[2,3-d]pyrimidin-7(8H)-one Scaffold toward Potent and Selective NUAK1 Inhibitors” (ACS Medicinal Chemistry Letters, 2025)
Several values for one entry are separate records, joined by “and”; a condition that tells them apart may be missing. Equal entries are not always repeated.

Experiments:
[1] = biological target: T1, NUAK2 (Homo sapiens, UniProt Q9H093); test: ADP-Glo biochemical assay NUAK2; settings: for NUAK2 pIC50 / IC50: ADP-Glo assay; for IC50: read-out: NUAK2 pIC50 (converted)
T1 construct: purchased MRC PPU
T1 sequence (Q9H093 1-628): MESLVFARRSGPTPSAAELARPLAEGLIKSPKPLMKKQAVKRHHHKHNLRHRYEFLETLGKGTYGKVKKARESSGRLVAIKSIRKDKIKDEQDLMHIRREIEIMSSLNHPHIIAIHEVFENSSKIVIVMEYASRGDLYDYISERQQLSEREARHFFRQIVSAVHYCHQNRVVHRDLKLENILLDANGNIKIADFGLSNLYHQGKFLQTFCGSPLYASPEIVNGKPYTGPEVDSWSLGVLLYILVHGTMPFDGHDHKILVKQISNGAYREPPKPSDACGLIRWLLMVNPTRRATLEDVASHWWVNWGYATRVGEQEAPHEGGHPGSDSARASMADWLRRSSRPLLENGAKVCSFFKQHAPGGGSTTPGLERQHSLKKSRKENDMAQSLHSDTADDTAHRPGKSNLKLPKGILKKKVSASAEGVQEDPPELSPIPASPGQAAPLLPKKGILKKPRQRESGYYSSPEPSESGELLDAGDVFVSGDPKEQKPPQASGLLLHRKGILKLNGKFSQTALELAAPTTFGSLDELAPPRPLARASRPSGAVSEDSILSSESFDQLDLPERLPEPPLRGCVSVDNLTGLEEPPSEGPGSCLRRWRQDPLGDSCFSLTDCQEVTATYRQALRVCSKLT
Protocol: (§1) Biological experimental procedures
(§2) ADP-Glo biochemical assays
(§3) Protein kinase activity in the presence of inhibitor compounds was determined by ADP-Glo assay (Promega), as previously described.1,2 Compounds were serialised using a Labcyte Echo 520 and transferred to 384 well plates (Greiner 784201) followed by the addition 5 µL of substrate containing peptide and ATP at Km in buffer (see Table S6). 5 µL of purified protein was added and the plate was incubated for 60 minutes at room temperature (ng/well; see Table S6). 3 µL of assay mixture was transferred using an Integra Viaflo384 into a white low volume plate (Greiner 781904) prior to the addition of 3 µL of ADP-Glo Reagent™ for a further 40 minute incubation. After incubation with 6 µL of Kinase Detection Reagent for 30 minutes, plate luminescence was read (Pherastar FSX, BMG […]
(§4) 30 mM HEPES pH7.4, 3 mM MgCl2, 3 mM MnCl2, 1.2 mM DTT, 0.01% CHAPS
(§5) Table S6: Conditions for protein kinase ADP-Glo assays
(§6) ATP AT Peptide Peptide Enzyme Enzyme Assay Buffe Min.
(§7) Protein conc. P Peptide name conc. supplier amount supplier vol. r na […]
(§8) NUAK1 µM µM Sakamototide 50 µM Merck 6.7 ng PPU 10 µl A 6
(§9) A µM µM Sakamototide 100 µM Merck 1 ng PPU 10 µl B 2 […]
(§10) aMin. n: Minimum number of technical replicates per compound

[2] = biological target: T2, NUAK1 (Homo sapiens, UniProt O60285); test: ADP-Glo biochemical assay NUAK1; parameters: purchased MRC PPU; settings: for NUAK1 pIC50 / IC50: ADP-Glo assay; for IC50: read-out: NUAK1 pIC50 (converted)
T2 sequence (O60285 1-661): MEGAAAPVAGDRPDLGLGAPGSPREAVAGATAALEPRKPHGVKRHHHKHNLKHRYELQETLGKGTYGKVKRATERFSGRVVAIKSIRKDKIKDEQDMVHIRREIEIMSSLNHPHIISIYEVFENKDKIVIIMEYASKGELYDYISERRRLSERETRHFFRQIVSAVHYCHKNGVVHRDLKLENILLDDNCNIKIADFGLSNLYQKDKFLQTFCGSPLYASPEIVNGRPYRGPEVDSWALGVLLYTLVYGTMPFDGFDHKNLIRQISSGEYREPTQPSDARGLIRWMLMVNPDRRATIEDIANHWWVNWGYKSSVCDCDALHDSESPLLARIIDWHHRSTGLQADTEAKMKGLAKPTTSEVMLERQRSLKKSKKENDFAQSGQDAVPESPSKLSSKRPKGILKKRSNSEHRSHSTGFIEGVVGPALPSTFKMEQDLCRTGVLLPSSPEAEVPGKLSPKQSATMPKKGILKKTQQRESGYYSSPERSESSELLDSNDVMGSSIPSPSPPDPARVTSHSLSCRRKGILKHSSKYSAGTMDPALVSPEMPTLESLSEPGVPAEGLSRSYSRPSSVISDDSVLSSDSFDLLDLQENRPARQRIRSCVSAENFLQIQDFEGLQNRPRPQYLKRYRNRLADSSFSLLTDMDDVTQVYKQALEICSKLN
Protocol: as §1, §2, §3, §4, §5, §6, §7, §8, §9, §10

[3] = biological target: T3, CDK4/Cyclin D1 (Homo sapiens, UniProt P11802); test: Adapta screening assay (Thermo Fisher); format: biochemical; settings: single point at 1 μM; read-out: CDK4 % Inh.
T3 construct: purchased Thermo Fisher Scientific
Source text: (§11) Activity pIC50 values and standard error of the mean (SEM) were estimated using a 4-parameter fit (Dotmatics). The SEM for all reported data was 0.2 or lower. See Experimental Procedures for minimum number of replicates per compound. Each experiment included a Standard compound whose pIC50 value was compared to a quality control chart. If the Standard pIC50 value fell outside the range of pIC50 +/-3 standard deviation, then the experiment was invalidated. […]
(§12) CDK4/cyclin D1: Adapta™ screening assay was performed by Thermo Fisher Scientific. The 2X CDK4/cyclin D1 / Rb Substrate mixture is prepared in 50 mM HEPES pH 7.5, 0.01% BRIJ-35, 10 mM MnCl2, 1 mM EGTA, 2 mM DTT, 0.02% NaN3. The final 10 µL Kinase Reaction consists of 7.5 - 30 ng CDK4/cyclin D1 and 1 µM Rb Substrate in 32.5 mM HEPES pH 7.5, 0.005% BRIJ-35, 5 mM MnCl2, […]
0.5 mM EGTA, 1 mM DTT, 0.01% NaN3. […]

[4] = biological target: T4, MARK3 (Homo sapiens, UniProt P27448); test: ADP-Glo biochemical assay MARK3; settings: for MARK3 pIC50 / IC50: ADP-Glo assay; for IC50: read-out: MARK3 pIC50 (converted)
T4 construct: purchased MRC PPU
Protocol: as §1, §2, §3, §4, §5, §6, §7, §8, §9, §10

[5] = biological target: T5, CDK6/Cyclin D1 (Homo sapiens, UniProt Q00534); test: Adapta screening assay (Thermo Fisher); format: biochemical; settings: single point at 1 μM; read-out: CDK6 % Inh.
T5 construct: purchased Thermo Fisher Scientific
Source text: as §11
as §12, with “CDK6/cyclin D1:” for “CDK4/cyclin D1:”, “2X CDK6/cyclin” for “2X CDK4/cyclin”, “of 1.75” for “of 7.5”, “- 7” for “- 30”, “ng CDK6/cyclin” for “ng CDK4/cyclin”
All single point assay determinations carried out in duplicate. […]

[6] = Microsomal stability, mouse; format: in vitro ADME; settings: mouse liver microsomes; read-out: MLM t1/2
Protocol: All single point assay determinations carried out in duplicate.
ADMET and PK experimental methods
Microsomal stability: analysis was performed by Cyprotex Discovery. […]

T4 sequence (P27448 whole entry): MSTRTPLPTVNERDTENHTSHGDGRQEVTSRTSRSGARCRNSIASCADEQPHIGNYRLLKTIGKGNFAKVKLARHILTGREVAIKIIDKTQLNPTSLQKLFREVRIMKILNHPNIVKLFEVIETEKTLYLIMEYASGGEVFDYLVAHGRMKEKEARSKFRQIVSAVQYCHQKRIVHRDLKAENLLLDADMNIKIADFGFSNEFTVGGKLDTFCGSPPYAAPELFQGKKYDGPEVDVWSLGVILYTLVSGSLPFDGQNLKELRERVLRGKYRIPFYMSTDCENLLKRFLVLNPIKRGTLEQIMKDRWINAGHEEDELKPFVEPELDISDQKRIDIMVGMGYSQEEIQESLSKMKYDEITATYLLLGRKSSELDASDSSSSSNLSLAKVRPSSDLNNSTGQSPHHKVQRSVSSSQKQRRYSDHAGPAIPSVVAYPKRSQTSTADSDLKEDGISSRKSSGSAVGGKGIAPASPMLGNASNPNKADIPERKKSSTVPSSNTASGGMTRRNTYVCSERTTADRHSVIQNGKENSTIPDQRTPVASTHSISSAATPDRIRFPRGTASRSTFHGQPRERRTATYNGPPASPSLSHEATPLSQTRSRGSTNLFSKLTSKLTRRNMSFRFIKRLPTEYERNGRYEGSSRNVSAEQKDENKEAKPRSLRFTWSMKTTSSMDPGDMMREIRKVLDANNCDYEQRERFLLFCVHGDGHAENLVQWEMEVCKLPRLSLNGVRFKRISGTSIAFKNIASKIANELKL
T5 sequence (Q00534 whole entry): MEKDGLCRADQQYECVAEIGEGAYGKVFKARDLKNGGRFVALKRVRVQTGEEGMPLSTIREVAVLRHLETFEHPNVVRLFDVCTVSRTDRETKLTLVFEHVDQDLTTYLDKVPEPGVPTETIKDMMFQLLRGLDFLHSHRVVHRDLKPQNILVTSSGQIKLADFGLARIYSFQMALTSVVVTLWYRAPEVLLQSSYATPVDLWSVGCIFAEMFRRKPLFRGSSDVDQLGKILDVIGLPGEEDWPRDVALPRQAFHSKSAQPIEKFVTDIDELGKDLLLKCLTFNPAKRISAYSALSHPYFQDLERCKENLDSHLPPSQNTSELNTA
T5 sequence (P24385 whole entry partner): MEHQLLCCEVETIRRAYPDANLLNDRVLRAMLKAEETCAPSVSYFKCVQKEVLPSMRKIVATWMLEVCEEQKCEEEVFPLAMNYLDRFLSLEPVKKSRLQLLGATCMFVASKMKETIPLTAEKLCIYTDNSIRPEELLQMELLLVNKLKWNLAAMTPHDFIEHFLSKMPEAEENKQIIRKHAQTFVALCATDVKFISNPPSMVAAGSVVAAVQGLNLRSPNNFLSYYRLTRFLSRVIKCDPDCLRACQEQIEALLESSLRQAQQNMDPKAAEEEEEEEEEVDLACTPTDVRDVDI
T3 sequence (P11802 whole entry): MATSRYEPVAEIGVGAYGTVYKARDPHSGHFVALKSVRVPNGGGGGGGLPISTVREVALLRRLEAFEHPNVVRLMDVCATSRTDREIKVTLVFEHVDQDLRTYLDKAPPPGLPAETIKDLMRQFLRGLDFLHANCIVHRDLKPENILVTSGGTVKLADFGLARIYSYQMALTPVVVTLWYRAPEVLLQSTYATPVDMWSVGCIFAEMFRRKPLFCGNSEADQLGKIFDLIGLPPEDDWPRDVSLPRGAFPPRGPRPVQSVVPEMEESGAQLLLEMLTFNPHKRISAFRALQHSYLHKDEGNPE
T3 sequence (P24385 whole entry partner): as the sequence (P24385 whole entry partner) above

Row | IC50 [1] [nM] | NUAK1 pIC50 [2] | MARK3 pIC50 [4] | ligand efficiency [2] | IC50 [4] [nM] | half-life at 1 µM [6] [min] | IC50 [2] [nM] | Structure (SMILES) | NUAK2 pIC50 [1] | NUAK2 Fold selectivity IC50/NUAK1 IC50 [1] [fold] | inhibition at 1 µM [3] [%] | MARK3 Fold selectivity IC50/NUAK1 IC50 [4] | inhibition at 1 µM [5] [%] | half-life at 0.75 h, 1 µM [6] [min]
1 | 5.62 | 7.58 | 5.8 | 0.33 | 1480 | 8 | – | CN1CCN(c2ccc(Nc3ncc4cc(C#N)c(=O)n(C5CCCC5)c4n3)cc2)CC1 [Compound 3, Narazaciclib, reference compound] | 8.3 | – | – | 56 fold | – | 8.4
2 | 43.7 | 8.3 | 6.2 | 0.39 | – | – | 4.57 | CC(C)N1CCN(c2ccc(Nc3ncc4ccn(C5CCCC5)c4n3)cc2)CC1 [Compound 8] | 7.4 | 10 | 90 | 138 fold | 79 | 15.1
3 | 38.9 | 8.6 | 5.2 | – | – | 14.8 | 2.75 | CC(C)N1CCN(c2ccc(Nc3ncc4ccn(CC5CCOC(C)(C)C5)c4n3)cc2)CC1 (stereo not drawn) [Compound 26] | – | 14 | – | – | – | –
4 | 12.3 | 8.5 | 6.2 | – | 676 | 8.4 | 3.39 | CC(C)N1CCN(c2ccc(Nc3ncc4ccn(CC5CCCO5)c4n3)cc2)CC1 (stereo not drawn) [Compound 27] | – | 4 | – | 200 fold and 201 fold | – | –
5 | 141 | 8.38 and 8.4 | 6.02 and 6.0 | 0.38 | – | – | – | CC(C)N1CCN(c2ccc(Nc3ncc4c(n3)N(C3CCCC3)C(=O)C4)cc2)CC1 [Compound 7] | 6.9 | 34 | 75 | 229 fold | 59 | 9.5
6 | 28.2 | 8.3 | 6.4 | – | 437 | – | 4.57 | Cc1cc(=O)n(C2CCCC2)c2nc(Nc3ccc(N4CCN(C)CC4)cc3)ncc12 [Compound 4] | 7.6 | 6 | 98 | 95 fold and 96 fold | 87 | 6.2

Row | Structure (SMILES) | IC50 [1] [nM] | NUAK1 pIC50 [2] | MARK3 pIC50 [4] | ligand efficiency [2] | IC50 [4] [nM] | half-life at 1 µM [6] [min] | IC50 [2] [nM] | NUAK2 pIC50 [1] | NUAK2 Fold selectivity IC50/NUAK1 IC50 [1] [fold] | inhibition at 1 µM [3] [%] | MARK3 Fold selectivity IC50/NUAK1 IC50 [4] | inhibition at 1 µM [5] [%] | half-life at 0.75 h, 1 µM [6] [min]
7 | Cc1cc(=O)n(C(C)C)c2nc(Nc3ccc(N4CC5CC(C4)N5C)cc3)ncc12 [Compound 20] | 69.2 | 7.68 and 7.7 | 6.0 | – | – | – | – | 7.2 | 3 | 46 | 47 fold | 39 | 79.9
8 | CN1C2CC1CN(c1ccc(Nc3ncc4cc(C#N)c(=O)n(C5CCCC5)c4n3)cc1)C2 [Compound 10] | – | 7.8 | 5.9 | – | – | – | 14.8 | 7.01 and 7.0 | 7 | 98 | 83 fold | 96 | 33.1
9 | CN1C2CC1CN(c1ccc(Nc3ncc4ccn(CC5CCOCC5)c4n3)cc1)C2 [Compound 24] | 26.9 | 8.5 | 5.22 and 5.2 | – | – | – | – | 7.6 | 9 | 29 | 1905 fold | 11 | 21.4
10 | CN1C2CC1CN(c1ccc(Nc3ncc4ccn(CC5CCCO5)c4n3)cc1)C2 (stereo not drawn) [Compound 28] | 53.7 | 8.3 | 5.68 and 5.7 | – | – | 17 | 5.5 | – | 10 | – | 380 fold | – | –
11 | Cc1cc(=O)n(C2CCCC2)c2nc(Nc3ccc(N4CC5CC(C4)N5C)cc3)ncc12 [Compound 9] | 14.8 | 8.3 | 6.2 | – | – | – | 5.5 | 7.8 | 3 | 91 | 112 fold | 67 | 20.9
